This note sets out measurements from patent US11524968B2, “Heterocyclic compound as a protein kinase inhibitor” (HK inno.N Corporation, priority 2017, dated 2022).

The target in this experiment is JAK1 (Homo sapiens (Human), UniProt P23458). The experiment in a line: Analysis of JAK1 activity inhibition ability (ADP-Glo Kinase Assay). Type of experiment: biochemical. Conditions: JAK1 enzyme, ADP-Glo luminescence, ATP 250 uM, IRS-itide substrate, 30° C. 40 minutes; read-out: IC50. The essentials:
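ADP-Glo luminescence read-out of ADP production, with IC50 taken as the concentration halving JAK1 activity relative to control. Enzyme was incubated 40 min at 30 °C with compound, IRS-itide (40 ng/mL) and ATP (250 uM), concentrations as prepared in pH 7.5 Tris-HCl/MgCl2/BSA/DTT buffer.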
For orientation: In ADP-Glo the light output rises with the ADP produced.

Chain of JAK1 (P23458 whole entry): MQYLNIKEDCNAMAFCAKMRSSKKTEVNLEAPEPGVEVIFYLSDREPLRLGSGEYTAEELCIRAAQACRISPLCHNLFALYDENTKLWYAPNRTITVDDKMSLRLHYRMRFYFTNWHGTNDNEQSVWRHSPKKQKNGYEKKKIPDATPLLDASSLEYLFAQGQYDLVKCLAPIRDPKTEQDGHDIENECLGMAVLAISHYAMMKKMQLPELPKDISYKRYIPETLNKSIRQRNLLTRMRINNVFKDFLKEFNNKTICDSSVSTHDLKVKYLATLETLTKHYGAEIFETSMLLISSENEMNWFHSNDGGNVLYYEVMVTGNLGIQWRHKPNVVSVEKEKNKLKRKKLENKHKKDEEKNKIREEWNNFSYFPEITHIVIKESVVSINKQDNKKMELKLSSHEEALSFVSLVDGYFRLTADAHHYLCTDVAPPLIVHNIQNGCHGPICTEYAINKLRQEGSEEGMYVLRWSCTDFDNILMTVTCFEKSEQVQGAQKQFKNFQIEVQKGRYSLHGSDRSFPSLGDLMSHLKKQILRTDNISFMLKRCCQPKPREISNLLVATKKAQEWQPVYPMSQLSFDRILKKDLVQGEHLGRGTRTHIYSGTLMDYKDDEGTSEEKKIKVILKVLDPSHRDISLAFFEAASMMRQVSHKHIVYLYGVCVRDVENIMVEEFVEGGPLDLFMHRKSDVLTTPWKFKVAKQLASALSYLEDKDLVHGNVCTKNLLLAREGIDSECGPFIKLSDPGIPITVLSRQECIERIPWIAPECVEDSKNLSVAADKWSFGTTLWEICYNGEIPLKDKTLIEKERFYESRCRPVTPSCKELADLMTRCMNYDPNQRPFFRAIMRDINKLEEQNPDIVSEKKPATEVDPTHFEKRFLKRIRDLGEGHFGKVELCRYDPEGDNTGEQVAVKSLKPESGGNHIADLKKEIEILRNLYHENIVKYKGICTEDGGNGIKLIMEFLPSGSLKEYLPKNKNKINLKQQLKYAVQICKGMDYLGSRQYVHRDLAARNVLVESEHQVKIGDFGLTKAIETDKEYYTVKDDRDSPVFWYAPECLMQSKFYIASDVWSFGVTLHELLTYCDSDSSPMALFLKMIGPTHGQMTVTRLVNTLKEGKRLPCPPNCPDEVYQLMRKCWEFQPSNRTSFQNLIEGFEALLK

In the case of `O=C(Nc1cc(C2=CCC(NS(=O)(=O)c3cccc(F)c3)CC2)c2cc[nH]c2n1)C1CC1` (stereo not drawn) [Example 163, N-(4-(4-((3-fluorophenyl)sulfonamido)cyclohex-1-en-1-yl)-1H-pyrrolo[2,3-b]pyridin-6-yl)cyclopropanecarboxamide], the IC50 was less than 20 nM. For the compound `N#Cc1ccc(S(=O)(=O)NC2CC=C(c3cc(NC(=O)C4CC4)nc4[nH]ccc34)CC2)cc1` (stereo not drawn) [Example 164, N-(4-(4-((4-cyanophenyl)sulfonamido)cyclohex-1-en-1-yl)-1H-pyrrolo[2,3-b]pyridin-6-yl)cyclopropanecarboxamide], the IC50 is less than 20 nM.

On to `O=C(Nc1cc(C2=CCC(NS(=O)(=O)C3CCC3)CC2)c2cc[nH]c2n1)C1CC1` (stereo not drawn) [Example 165, N-(4-(4-(cyclobutanesulfonamido)cyclohex-1-en-1-yl)-1H-pyrrolo[2,3-b]pyridin-6-yl)cyclopropanecarboxamide], for which the IC50 was less than 20 nM.

For `CCS(=O)(=O)N1CC=C(c2cc(NC(=O)C3CC3)nc3[nH]ccc23)CC1` [Example 166, N-(4-(1-(ethylsulfonyl)-1,2,3,6-tetrahydropyridin-4-yl)-1H-pyrrolo[2,3-b]pyridin-6-yl)cyclopropanecarboxamide], the IC50 fell in the range of 20 to 200 nM. As for `O=C(Nc1cc(C2=CCN(S(=O)(=O)CCCF)CC2)c2cc[nH]c2n1)C1CC1` [Example 167, N-(4-(1-((3-fluoropropyl)sulfonyl)-1,2,3,6-tetrahydropyridin-4-yl)-1H-pyrrolo[2,3-b]pyridin-6-yl)cyclopropanecarboxamide], the figure is 20 to 200 nM; as for `O=C(Nc1cc(C2=CCN(S(=O)(=O)C3CC3)CC2)c2cc[nH]c2n1)C1CC1` [Example 168, N-(4-(1-(cyclopropylsulfonyl)-1,2,3,6-tetrahydropyridin-4-yl)-1H-pyrrolo[2,3-b]pyridin-6-yl)cyclopropanecarboxamide], 20 to 200 nM. In the case of `O=C(Nc1cc(C2=CCN(S(=O)(=O)CC3CCOCC3)CC2)c2cc[nH]c2n1)C1CC1` [Example 169, N-(4-(1-(((tetrahydro-2H-pyran-4-yl)methyl)sulfonyl)-1,2,3,6-tetrahydropyridin-4-yl)-1H-pyrrolo[2,3-b]pyridin-6-yl)cyclopropanecarboxamide], the IC50 is more than 200 nM. With `N#CCCCS(=O)(=O)N1CC=C(c2cc(NC(=O)C3CC3)nc3[nH]ccc23)CC1` [Example 170, N-(4-(1-((3-cyanopropyl)sulfonyl)-1,2,3,6-tetrahydropyridin-4-yl)-1H-pyrrolo[2,3-b]pyridin-6-yl)cyclopropanecarboxamide], the IC50 was 20 to 200 nM. As for `N#CCC1(CS(=O)(=O)N2CC=C(c3cc(NC(=O)C4CC4)nc4[nH]ccc34)CC2)CC1` [Example 171, N-(4-(1-(((1-(cyanomethyl)cyclopropyl)methyl)sulfonyl)-1,2,3,6-tetrahydropyridin-4-yl)-1H-pyrrolo[2,3-b]pyridin-6-yl)cyclopropanecarboxamide], the figure is 20 to 200 nM; as for `N#CC1(CS(=O)(=O)N2CC=C(c3cc(NC(=O)C4CC4)nc4[nH]ccc34)CC2)CC1` [Example 172, N-(4-(1-(((1-cyanocyclopropyl)methyl)sulfonyl)-1,2,3,6-tetrahydropyridin-4-yl)-1H-pyrrolo[2,3-b]pyridin-6-yl)cyclopropanecarboxamide], 20 to 200 nM. As to `O=C(Nc1cc(C2=CCN(S(=O)(=O)c3ccc(F)c(F)c3)CC2)c2cc[nH]c2n1)C1CC1` [Example 173, N-(4-(1-((3,4-difluorophenyl)sulfonyl)-1,2,3,6-tetrahydropyridin-4-yl)-1H-pyrrolo[2,3-b]pyridin-6-yl)cyclopropanecarboxamide], the IC50 fell in the range of 20 to 200 nM. Consider `CCS(=O)(=O)N1C2C=C(c3cc(NC(=O)C4CC4)nc4[nH]ccc34)CC1CC2` (stereo not drawn) [Example 174, N-(4-(8-(ethylsulfonyl)-8-azabicyclo[3.2.1]oct-2-en-3-yl)-1H-pyrrolo[2,3-b]pyridin-6-yl)cyclopropanecarboxamide], for which the IC50 fell in the range of 20 to 200 nM.

One may read the IC50 as the point on the concentration scale where inhibition reaches its midpoint.
